{"source": "paper PMC5947712", "about": "“High‐Throughput Kinetic Analysis for Target‐Directed Covalent Ligand Discovery” (Angewandte Chemie (International Ed. in English), 2018)", "key": {"[1]": {"molecular_target": "T1, Cdk2(C177A) (Homo sapiens, UniProt P24941, C177A)", "T1 construct": "made in house; host or cells: E. coli Tuner(DE3)", "test": "Intact protein mass spectrometry of labelling, Cdk2(C177A)", "format": "binding", "experimental": "(§1) Hs!Cyclin!A2!F!5’![…]!\n(§2) Hs!Cyclin!A2!R!5’![…]!\n(§3) Sc!CAK1!R!5’!GAATTCttatgggcttttctaattcttgcaag!\nGSTBCdk2\" and\" GSTBcyclin\" A2:! Harvested! cells! were! resuspended! in! 50! mM! HEPES! buffer! (pH7.5)! containing! 150! mM! NaCl,!\n10!mM!MgCl2,!2!mM!dithiothreitol!(DTT),!0.5!mg!mLR1!lysozyme,!and!0.01%!Triton!XR100!at!4!˚C!and!incubated!for!30!minutes.!\nAfter! sonication! and! centrifugation! (40! min,! 16000! g),! the! supernatant! was! incubated! for! 1! h! with! glutathioneRSepharose!\nbeads,! washed! with! lysis! buffer! and! the! desired! protein! eluted! with! 10! mM! GSH! (100! mM! Tris,! pH! 8).! After! incubation! the! deR\nsired! protein! was! cleaved! from! the! GST! tag! with! PreScission! protease! (100:1)! at! 4 °C! for! 4! hours,! the! cleaved! GST! tag! was!\nremoved! with! glutathioneRSepharose! beads.! Cdk2! was! concentrated! and! then! loaded! onto! a! Superdex! 75! (16/60)! column,!\neluting! with! 100! mM! phosphate! buffer! containing! 50! mM! DTT.! Purified! Cdk2! was! concentrated! to! 10! mg! mLR1!and! stored! at!–\n80! ˚C.! Cyclin! A2! was! purified! by! glutathioneRSepharose! affinity! as! described! above! with! the! following! amendments:! 100! mM!\nMgCl2!was! added! after! GST! cleavage! to! minimise! protein! aggregation! and! gel! filtration! was! performed! with! 50! mM! […]\n(§4) labelling! reached! completion! (as! monitored! by! fluorescence! quench! assay! and/or! intact! protein! mass! spectrometry).! […]"}, "[2]": {"molecular_target": "Cdk2(WT) (Homo sapiens, UniProt P24941)", "test": "Intact protein mass spectrometry of labelling, Cdk2(WT)", "format": "binding", "parameters": "made in house; host or cells: E. coli Tuner(DE3)", "experimental": "Supplementary, Figure, S6!|!Acrylamide, 1,selectivity, profile.!Exponential! regressions! from!kinetic! analysis! of! acrylamide!1!\n(0.5!mM)!in!reaction!with!various!thiols!(5!µM).!\nSupplementary, Figure, S7!|!Cdk2(WT),is, mono%modified, by, acrylamide, 1.!(a)!Cdk2(WT)! was! phosphorylated! with! CAK1.!\npCdk2(WT)! (5! µM)! was! then! incubated! with! acrylamide!1!(0.5! mM)! in! 100! mM! phosphate! buffer!(pH! 8.0)! at! 4! ˚C! for! 18! hours.!\nIntactRprotein! mass! spectra! show! complete! phosphorylation! (ΔMW! =! 80! Da)! and! complete! acrylamide! labeling! (ΔMW! =!\n288!Da).!(b)!Cdk2(WT)! (5! µM)! was! incubated! with! acrylamide!1!(0.5! mM)! in! 100! mM! phosphate! buffer! (pH! 8.0)!in! the!presR\nence! or! absence! of! GSH! (1! mM)! at! room! temperature.!The! degree! of! labelling! was! monitored! by!intactRprotein! mass!specR\ntrometry!after!6.25!and!24!h.!The!presence!of!1!mM!GSH!was!found!to!slow!the!rate!of!Cdk2!modification!by!a!factor!of!~2.! […]\nas §1, §2, §3\nGSTBCdk2\" and\" GSTBcyclin\" A2:! Harvested! cells! were! resuspended! in! 50! mM! HEPES! buffer! (pH7.5)! containing! 150! mM! NaCl,! […]\nas §4"}}, "data": [{"compound": "C=CC(=O)N1CCN(C(=O)OC(C)(C)C)c2ccccc21", "note": "[Acrylamide 1]", "values": [{"measurement": "modification of Cdk2(C177A) by intact protein mass spectrometry", "setting": "[1]", "result": "unaffected"}, {"measurement": "factor by which 1 mM GSH slows the rate of Cdk2 modification", "setting": "[2]; Cdk2(WT) 5 µM, compound 0.5 mM, pH 8.0, room temperature, monitored after 6.25 and 24 h", "result": "~ 2"}, {"measurement": "modification of Cdk2(WT) by intact protein mass spectrometry", "setting": "[2]; even in the presence of millimolar glutathione", "result": "mono‐modifies"}]}]}
